# Active and inactive are the calls of the source.
# Assays:
# [1] = test system: Streptococcus; test: Group A Streptococcus viability loss, dose response, counter-screen for streptokinase expression inhibitor project, luminescence, BacTiterGlo (AID 1915); type: functional, organism-based;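 also: potency for reduction of bacterial viability or growth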
# [2] = test system: Streptococcus sp. 'group A'; test: growth inhibition of control SK(-) GAS strain, dose response, counter-screen for streptokinase expression inhibitor project, luminescence, kanamycin, BacTiterGlo, confirmation (AID 1900); type: functional, organism-based
# [3] = biological target: T1, Streptokinase A (Streptococcus pyogenes serotype M1, UniProt P10520); test: S. pyogenes streptokinase expression inhibitors, potency, dose response, plasminogen activation absorbance, OD405 (AID 1914); type: functional, Streptococcus pyogenes M1 GAS;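 also: secreted streptokinase activity via plasminogen activation per viability signal from cell pellet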
# T1 sequence (P10520 whole entry): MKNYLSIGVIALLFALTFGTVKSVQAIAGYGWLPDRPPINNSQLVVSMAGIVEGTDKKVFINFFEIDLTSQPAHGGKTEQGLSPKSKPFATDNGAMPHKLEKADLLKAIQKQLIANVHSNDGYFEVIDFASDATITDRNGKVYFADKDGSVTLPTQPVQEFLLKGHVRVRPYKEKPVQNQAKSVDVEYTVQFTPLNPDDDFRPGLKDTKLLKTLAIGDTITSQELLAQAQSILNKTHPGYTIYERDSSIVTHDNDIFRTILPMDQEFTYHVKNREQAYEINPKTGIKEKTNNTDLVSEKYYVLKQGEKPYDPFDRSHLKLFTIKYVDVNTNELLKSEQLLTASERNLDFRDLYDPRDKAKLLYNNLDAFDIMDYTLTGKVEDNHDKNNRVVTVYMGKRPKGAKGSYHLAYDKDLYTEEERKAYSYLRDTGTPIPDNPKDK
# [4] = biological target: T2, Cytochrome P450 1A2 (Homo sapiens, UniProt P05177);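 also: PubChem cytochrome P450 panel assay, CYP1A2 panel member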
# T2 sequence (P05177 whole entry): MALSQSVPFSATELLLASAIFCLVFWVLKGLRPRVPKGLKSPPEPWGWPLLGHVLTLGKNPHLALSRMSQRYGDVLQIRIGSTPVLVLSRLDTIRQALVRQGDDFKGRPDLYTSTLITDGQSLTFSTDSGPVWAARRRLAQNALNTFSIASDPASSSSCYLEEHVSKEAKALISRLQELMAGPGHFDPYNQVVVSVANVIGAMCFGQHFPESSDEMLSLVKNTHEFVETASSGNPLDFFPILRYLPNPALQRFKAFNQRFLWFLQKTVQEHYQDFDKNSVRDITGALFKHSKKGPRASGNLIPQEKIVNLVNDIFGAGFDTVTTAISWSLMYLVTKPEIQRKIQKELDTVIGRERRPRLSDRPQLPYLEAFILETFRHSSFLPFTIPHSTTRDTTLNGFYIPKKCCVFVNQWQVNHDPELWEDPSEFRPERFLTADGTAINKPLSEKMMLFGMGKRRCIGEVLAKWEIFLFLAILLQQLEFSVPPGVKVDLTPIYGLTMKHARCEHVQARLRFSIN
# [5] = biological target: Cytochrome P450 3A4 (Homo sapiens, UniProt P08684);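 also: CYP3A4 tested as one member of a cytochrome P450 panel screen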
# [6] = biological target: Cytochrome P450 2C9 (Homo sapiens, UniProt P11712)
# [7] = biological target: T3, Heat shock factor protein 1 (Mus musculus, UniProt P38532); test: inhibition of MG132-induced HSE-luciferase signal, confirmation, cell-based, NIH3T3, luminescence, dose retest (AID 2382); type: functional;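 also: NIH3T3 fibroblasts with HSF1-driven luciferase reporter stressed by proteasome inhibitor MG132; luminescence from HSF1-driven luciferase expression after 8 hours of MG132 stress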
# T3 sequence (P38532 whole entry): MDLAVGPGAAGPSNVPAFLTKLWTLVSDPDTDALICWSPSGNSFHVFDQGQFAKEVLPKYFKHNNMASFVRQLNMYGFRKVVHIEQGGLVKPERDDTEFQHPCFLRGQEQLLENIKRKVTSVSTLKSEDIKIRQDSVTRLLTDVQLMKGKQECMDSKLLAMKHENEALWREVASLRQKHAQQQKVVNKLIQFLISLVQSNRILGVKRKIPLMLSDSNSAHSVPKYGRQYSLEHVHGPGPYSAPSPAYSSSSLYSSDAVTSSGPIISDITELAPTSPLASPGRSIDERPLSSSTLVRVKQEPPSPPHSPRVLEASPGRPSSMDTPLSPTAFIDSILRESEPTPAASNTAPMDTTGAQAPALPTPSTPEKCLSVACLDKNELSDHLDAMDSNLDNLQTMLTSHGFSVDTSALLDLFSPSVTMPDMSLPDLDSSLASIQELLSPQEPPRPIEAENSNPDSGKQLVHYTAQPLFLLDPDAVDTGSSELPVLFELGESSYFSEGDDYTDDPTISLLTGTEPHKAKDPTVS
# [8] = biological target: T4, Rac GTPase-activating protein 1 (Homo sapiens, UniProt Q9H0H5); test: MgcRacGAP GTPase-activating activity inhibitors, confirmation, biochemical, ADP Hunter fluorescence, primary and confirmatory (AID 624330); type: functional
# T4 sequence (Q9H0H5 whole entry): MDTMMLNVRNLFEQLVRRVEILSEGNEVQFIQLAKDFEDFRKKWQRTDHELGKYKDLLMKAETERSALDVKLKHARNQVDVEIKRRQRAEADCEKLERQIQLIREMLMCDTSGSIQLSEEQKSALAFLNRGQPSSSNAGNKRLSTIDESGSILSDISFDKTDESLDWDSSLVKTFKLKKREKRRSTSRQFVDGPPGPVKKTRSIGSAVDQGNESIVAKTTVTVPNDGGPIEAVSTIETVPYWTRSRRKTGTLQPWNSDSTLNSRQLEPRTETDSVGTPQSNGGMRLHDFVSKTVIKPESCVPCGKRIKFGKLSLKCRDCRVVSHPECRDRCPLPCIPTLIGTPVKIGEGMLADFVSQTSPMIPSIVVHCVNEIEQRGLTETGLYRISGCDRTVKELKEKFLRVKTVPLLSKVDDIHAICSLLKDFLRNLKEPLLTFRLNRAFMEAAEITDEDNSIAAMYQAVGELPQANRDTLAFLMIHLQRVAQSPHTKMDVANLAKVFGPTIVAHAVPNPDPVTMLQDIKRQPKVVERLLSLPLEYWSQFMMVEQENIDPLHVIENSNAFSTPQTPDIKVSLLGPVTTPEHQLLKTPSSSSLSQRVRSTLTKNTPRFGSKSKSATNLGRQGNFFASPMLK
# [9] = biological target: T5, Corticotropin-releasing factor receptor 2/Corticotropin-releasing factor-binding protein (Homo sapiens, UniProt P24387+Q13324); test: activators of CRF receptor 2 with binding protein – uHTS hits, confirmation (AID 602473); type: functional; conditions: read-out: EC50_Mean
# T5 sequence (Q13324 whole entry): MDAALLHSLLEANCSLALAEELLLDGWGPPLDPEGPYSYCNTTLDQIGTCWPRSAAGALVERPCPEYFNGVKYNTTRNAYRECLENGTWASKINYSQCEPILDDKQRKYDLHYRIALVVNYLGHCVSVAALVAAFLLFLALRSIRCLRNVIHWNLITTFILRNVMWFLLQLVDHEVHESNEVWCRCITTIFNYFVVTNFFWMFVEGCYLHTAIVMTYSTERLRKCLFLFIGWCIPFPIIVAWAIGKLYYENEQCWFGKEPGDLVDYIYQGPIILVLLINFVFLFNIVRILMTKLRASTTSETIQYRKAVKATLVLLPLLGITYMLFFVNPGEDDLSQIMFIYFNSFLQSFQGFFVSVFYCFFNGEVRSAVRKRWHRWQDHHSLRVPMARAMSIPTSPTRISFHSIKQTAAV
# T5 sequence (P24387 whole entry): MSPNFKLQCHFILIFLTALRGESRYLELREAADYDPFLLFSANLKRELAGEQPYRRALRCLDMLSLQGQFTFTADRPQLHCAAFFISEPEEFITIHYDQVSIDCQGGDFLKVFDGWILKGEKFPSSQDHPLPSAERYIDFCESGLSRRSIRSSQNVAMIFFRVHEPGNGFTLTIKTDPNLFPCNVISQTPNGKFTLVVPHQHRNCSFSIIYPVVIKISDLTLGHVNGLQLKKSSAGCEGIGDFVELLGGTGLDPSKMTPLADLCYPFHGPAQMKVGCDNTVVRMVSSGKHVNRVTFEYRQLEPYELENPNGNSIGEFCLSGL
# [10] = Luminescence Cell-Based Dose Retest to Confirm Inhibitors of Cancer Stem Cells. [Related pubchem assays (depositor defined):AID2717, AID2721]; type: functional; conditions: Homo sapiens
# [11] = biological target: Cytochrome P450 2C19 (Homo sapiens, UniProt P33261); test: Cytochrome panel assay with activity outcomes. Panel member name: p450-cyp2c19 Compounds with AC50 equal or less than 10 uM are considered active; type: functional; conditions: read-out: AC50
# Sequence of Cytochrome P450 2C19 (P33261 whole entry): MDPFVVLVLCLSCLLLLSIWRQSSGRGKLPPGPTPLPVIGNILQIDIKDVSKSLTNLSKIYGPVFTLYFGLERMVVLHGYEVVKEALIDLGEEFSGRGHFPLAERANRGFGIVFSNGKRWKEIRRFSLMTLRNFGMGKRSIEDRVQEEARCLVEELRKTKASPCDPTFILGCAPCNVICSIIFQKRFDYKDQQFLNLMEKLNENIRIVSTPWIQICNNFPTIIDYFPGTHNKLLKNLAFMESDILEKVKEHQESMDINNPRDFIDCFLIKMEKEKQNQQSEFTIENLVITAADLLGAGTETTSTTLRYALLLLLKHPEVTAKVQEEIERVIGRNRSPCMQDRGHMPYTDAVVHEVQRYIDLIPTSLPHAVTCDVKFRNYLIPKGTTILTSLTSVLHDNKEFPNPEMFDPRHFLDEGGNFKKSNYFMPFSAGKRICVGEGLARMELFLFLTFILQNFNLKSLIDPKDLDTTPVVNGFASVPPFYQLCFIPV
# Sequence of Cytochrome P450 3A4 (P08684 whole entry): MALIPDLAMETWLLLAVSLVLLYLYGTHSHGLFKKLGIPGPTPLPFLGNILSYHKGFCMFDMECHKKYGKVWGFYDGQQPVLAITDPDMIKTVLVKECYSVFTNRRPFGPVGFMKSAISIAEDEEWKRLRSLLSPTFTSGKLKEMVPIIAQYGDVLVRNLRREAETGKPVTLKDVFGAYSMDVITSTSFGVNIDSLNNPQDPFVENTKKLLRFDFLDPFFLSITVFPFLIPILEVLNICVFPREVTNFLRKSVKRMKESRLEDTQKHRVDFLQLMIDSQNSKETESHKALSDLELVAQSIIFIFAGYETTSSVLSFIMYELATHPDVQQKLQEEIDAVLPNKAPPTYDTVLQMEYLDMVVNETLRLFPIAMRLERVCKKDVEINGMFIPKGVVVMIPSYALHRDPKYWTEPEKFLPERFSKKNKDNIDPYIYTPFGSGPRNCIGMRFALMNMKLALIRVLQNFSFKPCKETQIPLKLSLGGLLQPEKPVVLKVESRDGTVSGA
# Sequence of Cytochrome P450 2C9 (P11712 whole entry): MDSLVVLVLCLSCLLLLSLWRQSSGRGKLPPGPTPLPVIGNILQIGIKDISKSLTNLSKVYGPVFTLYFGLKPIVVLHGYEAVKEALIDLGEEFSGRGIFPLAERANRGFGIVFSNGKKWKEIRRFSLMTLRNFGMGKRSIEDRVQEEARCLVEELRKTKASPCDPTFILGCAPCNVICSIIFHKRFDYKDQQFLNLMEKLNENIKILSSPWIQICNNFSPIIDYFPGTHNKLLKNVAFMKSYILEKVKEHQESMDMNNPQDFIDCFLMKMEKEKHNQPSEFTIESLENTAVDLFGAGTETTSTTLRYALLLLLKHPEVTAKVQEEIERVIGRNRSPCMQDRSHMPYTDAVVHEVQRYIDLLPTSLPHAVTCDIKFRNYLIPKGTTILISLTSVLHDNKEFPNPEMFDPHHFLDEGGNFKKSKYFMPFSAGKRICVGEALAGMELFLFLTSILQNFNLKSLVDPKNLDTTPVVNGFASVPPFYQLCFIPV
SMILES,EC50 [1],EC50 [2],EC50 [3],also measured
N#Cc1c(NC(=S)NC(=O)C2CCCC2)sc2c1CCCCC2,27.1 µM (active),8.59 µM (active),2.9 µM (active),
COc1cccc(Cn2c(=O)c(-c3cccs3)nc3cnc(OCc4ccccc4)nc32)c1,,,,AC50 [4]: 1.58 µM (inconclusive); AC50 [5]: 7.94 µM (inconclusive); AC50 [6]: 0.631 µM (inconclusive)
COc1cnc(-c2ccccn2)nc1Oc1ccccc1,> 150 µM (not active),> 150 µM (not active),> 150 µM (not active),
COc1ccc(CNc2nc3c(c(=O)[nH]c(=O)n3C)n2Cc2ccccc2C)cc1,,,,EC50 [7]: > 195 µM (not active)
c1ccc(OCc2nc3c4c(ncn3n2)-c2ccccc2CC42CCCC2)cc1,> 150 µM (not active),114 µM (active),22 µM (active),
COc1ccc(-n2c(C)cc(-c3csc(NC(=O)c4ccc(S(=O)(=O)N(C)C)cc4)n3)c2C)cc1,,,,EC50 [7]: > 195 µM (not active)
Cc1nn(-c2ccccc2)c(Cl)c1C1C(C#N)=C(N)OC2=C1C(=O)CC(C)(C)C2 (stereo not drawn),16.1 µM (active),1.4 µM (active),> 150 µM (not active),
COc1ccc(-c2c(C#N)c(N)nc3sc(C(=O)c4ccccc4)c(N)c23)cc1,> 150 µM (not active),5.29 µM (active),> 150 µM (not active),
O=C(CNCC1CCCO1)Nc1ccc(N2CCCCCC2)cc1 (stereo not drawn),,,,IC50 [8]: 62.7 µM (active)
O=C(CCN1CCCCCC1)Nc1ccc2c(c1)OCCO2,,,,IC50 [8]: 338 µM (active)
Nc1cc(C(F)(F)F)ccc1N1CCOCC1,,,,IC50 [8]: 29.9 µM (active)
CCn1c(-c2ccccc2)c[nH]c1=S,,,> 150 µM (not active),
Cc1ccc(-c2cc(-c3ccccc3Cl)[nH]n2)c(O)c1,13.6 µM (active),6.71 µM (active),20.1 µM (inconclusive),
COc1cc(C)ccc1NC(=O)Cc1csc(NC(=O)Nc2ccccc2OC)n1,> 150 µM (not active),15.4 µM (active),104 µM (active),
COc1ccc(CNC(=O)CN(C)Cc2ccc(C(C)(C)C)cc2)cc1,,,,IC50 [8]: 106 µM (active)
CCC(C(=O)NCC1CCCO1)n1nc(C)c2sc3ccccc3c2c1=O (stereo not drawn),> 150 µM (not active),> 150 µM (not active),> 150 µM (not active),
CCCn1cc(CN2CCC(n3nccc3NC(=O)c3ccccc3)CC2)c(C)n1,> 150 µM (not active),> 150 µM (not active),> 150 µM (not active),
c1ccc(-c2nc(C3CCCCC3)c3sccc3n2)cc1,15.5 µM (active),4.26 µM (active),23.9 µM (active),
Cc1cc(C(C)(C)C)cc(C)c1COC(=O)c1cccnc1,> 150 µM (not active),15.8 µM (active),> 150 µM (not active),
O=C(NCc1ccc(OC(F)(F)F)cc1)c1cccc2c1C(=O)c1ccc(N3CCC(Cc4ccccc4)CC3)cc1S2(=O)=O,,,,EC50 [9]: 8.45 µM (active)
O=S(=O)(c1ccc2ccccc2c1)N1CCN(c2ccc(O)cc2)CC1,,,,IC50 [8]: 35.8 µM (active); AC50 [10]: 6.17 µM (active)
O=[N+]([O-])c1ccc(-c2ccc(/C=N/Nc3nc(N4CCCC4)nc(N4CCCC4)n3)o2)cc1,,,,EC50 [9]: 2.8 µM (active)
Cc1ccsc1/C=C1\Oc2cc(O)ccc2C1=O,,,,EC50 [9]: 11.1 µM (active)
C/C=C(\C)C(=O)OC1CC(C)(C)C[C@H]2C3=CC[C@@H]4[C@@]5(C)CCC(O[C@@H]6O[C@@H](C(=O)O)[C@@H](O)C(O[C@@H]7OC[C@H](O)[C@@H](O)[C@@H]7O[C@@H]7OC(CO)C(O)[C@@H](O)[C@@H]7O)C6O[C@@H]6OC(CO)C(O)C(O)C6O)[C@@](C)(CO)[C@@H]5CC[C@]4(C)[C@]3(C)CC(O)[C@@]12CO (stereo partly drawn),,,,EC50 [9]: 11.4 µM (active)
COc1cc(C=C2NC(=O)NC2=O)ccc1O,,,,IC50 [8]: 19 µM (active)
O=C(CNC(=O)C1COc2ccccc2O1)N/N=C/c1ccc(O)cc1O (stereo not drawn),,,,IC50 [8]: 71.7 µM (active); AC50 [10]: 6.23 µM (active)
Cn1c(=O)n(C)c2cc(/C=N/NC(=O)c3ccc(Cl)cc3Cl)ccc21,,,,AC50 [4]: 14.1 µM (inconclusive); AC50 [5]: 0.0398 µM (inconclusive); AC50 [6]: 39.8 µM (inconclusive)
COc1cc(OC)c(OC)cc1/C=N/N(C)c1ccccc1,,,,IC50 [8]: 43.7 µM (active)
C/C(=N\NC(=O)C1CC1c1ccccc1)c1cccs1 (stereo not drawn),,,,AC50 [4]: 15.8 µM (inconclusive); AC50 [5]: 8.91 µM (inconclusive); AC50 [11]: 2.24 µM (inconclusive); AC50 [6]: 11.2 µM (inconclusive)
CO[C@@]1(NC(=O)Cc2cccs2)C(=O)N2C(C(=O)O)=C(COC(N)=O)CS[C@@H]21 [CEFOXITIN SODIUM],16.2 µM (active),5.58 µM (active),> 150 µM (not active),

# — ChEMBL document CHEMBL1201862, “PubChem BioAssay data set” (2004)
